Read-outs that look alike come from different tables or passages of the source. Bounds are passed on as bounds.

Among the data in patent publication US9828342B2, “Isatin derivatives, pharmaceutical compositions thereof, and methods of use thereof” (CITY OF HOPE, priority 2012, dated 2017) are IC50 values, retold here.

The test system of assay [1] is DU145 prostate cancer cells. As to the kind of experiment: MTS cell viability assay in DU145 prostate cancer cells. It is filed as cell-based. The procedure: (§1) Then, MTS assays for cell viability were carried out to determine the IC50 values. Four samples were tested for each isatin derivative at each concentration in each cell line, and the averaged data were shown in Table 2a and FIGS. 1˜4.
(§2) IC50 of values of isatin derivatives Compounds 101˜123 were determined in cancer cell lines DU145 and A2058 respectively.

Assay [2] deals with A2058 human melanoma cells. As to the kind of experiment: MTS cell viability assay in A2058 melanoma cells. Format: cell-based. The procedure: as §1, §2
Setting [3] is: Homo sapiens, DU-145, 48 h, DU145, 48 hr, 0.05 to 10 μM in 1% DMSO, MTS (Table 2a), read-out: DU145 IC50.
The mark [4] stands for this setting: Homo sapiens, A2058, 48 h, 0.05 to 10 μM in 1% DMSO, MTS (Table 2a), read-out: A2058 IC50.
The mark [5] stands for this setting: Homo sapiens, DU-145, 48 h, DU145, compound in DMSO, 48 hr, MTS (Table 2b), read-out: IC50 value, DMSO, DU145.
Where [6] appears, read: Homo sapiens, A2058, 48 h, A2058, compound in DMSO, 48 hr, MTS (Table 2b), read-out: IC50 value, DMSO, A2058.
Setting [7] is: DU145, compound in DMSO, 48 hr, MTS (Table 2b), read-out: IC50 value, DMSO, DU145.
Setting [8] is: A2058, compound in DMSO, 48 hr, MTS (Table 2b), read-out: IC50 value, DMSO, A2058.
[9] abbreviates: Homo sapiens, DU-145, 48 h, DU145, compound in water, 48 hr, MTS (Table 2b), read-out: IC50 value, Water, DU145.
The mark [10] stands for this setting: Homo sapiens, A2058, 48 h, A2058, compound in water, 48 hr, MTS (Table 2b), read-out: IC50 value, Water, A2058.

Consider `O=C1C(=O)N(Cc2ccccc2)c2cc(-c3ccccc3)ccc21` [Compound 1], for which the IC50 in assay [1] (setting [3]) and in assay [2] (setting [4]) was above 10000 nM each time.
For `O=C1C(=O)N(Cc2ccccc2)c2cc(Br)ccc21` [Compound 3, N-benzyl-6-bromoindoline-2,3-dione], the half-maximal inhibitory concentration (IC50) turned out to be 8500 nM in assay [1] (setting [3]) and 8400 nM in assay [2] (setting [4]).
`O=C1C(=O)N(Cc2ccccc2)c2ccc(I)cc21` [Compound 4, N-benzyl-5-iodoindoline-2,3-dione]: the 50% inhibitory concentration (IC50) in assay [1] (setting [3]) worked out at 2400 nM; in assay [2] (setting [4]) it was 3800 nM.
The matching figures for `O=C1C(=O)N(Cc2ccccc2)c2cccc(Br)c21` [Compound 5]: above 10000 nM and above 10000 nM.
Regarding `C[Si](C)(C)CCOCN1C(=O)C(=O)c2cc(I)ccc21` [Compound 6], the IC50 came to 4600 nM in assay [1] (Homo sapiens, DU-145, DU145, 48 hr, 0.05 to 10 μM in 1% DMSO, MTS (Table 2a), read-out: DU145 IC50) and 6900 nM in assay [2] (Homo sapiens, A2058, 48 hr, 0.05 to 10 μM in 1% DMSO, MTS (Table 2a), read-out: A2058 IC50).
Take `CN1C(=O)C(=O)c2cc(-c3cccnc3)ccc21` [Compound 7]: the figures for the IC50 in assay [1] (setting [3]) and in assay [2] (setting [4]) were 4300 nM and 4200 nM, respectively.
For `O=C1C(=O)N(CCc2ccccc2)c2ccc(-c3cccnc3)cc21` [Compound 8], in that order: 5000 nM and above 5000 nM.
The matching figures for `O=C1C(=O)N(CCO)c2ccc(-c3cccnc3)cc21` [Compound 10]: above 5000 nM and above 5000 nM.
The matching figures for `O=C1C(=O)N(CCOCCO)c2ccc(-c3cccnc3)cc21` [Compound 11]: above 5000 nM and above 5000 nM.
Take `O=C1C(O)c2cc(-c3cccnc3)ccc2N1Cc1ccccc1` (centres unmarked) [Compound 13, N-Benzyl-3-hydroxy-5-(pyridin-3-yl)indoline-2-one]: the IC50 in assay [1] (setting [3]) was determined as 2500 nM; in assay [2] (setting [4]), 2300 nM.
The matching figures for `CC(=O)OC1C(=O)N(Cc2ccccc2)c2ccc(-c3cccnc3)cc21` (centres unmarked) [Compound 14, 3-Acetoxy-N-Benzyl-5-(pyridin-3-yl)indoline-2-one]: above 5000 nM and above 5000 nM.
As for `O=C1Cc2cc(-c3cccnc3)ccc2N1Cc1ccccc1` [Compound 15, N-Benzyl-5-(pyridin-3-yl)indoline-2-one], the IC50 in assay [1] (setting [3]) and in assay [2] (setting [4]) was above 5000 nM in each case.
For the molecule `Cc1ccc2c(c1)C(=O)C(=O)N2CCCc1ccccc1` [Compound 19], the IC50 in assay [1] (setting [3]) and in assay [2] (setting [4]) was above 5000 nM throughout.
Consider `CCCc1ccc2c(c1)C(=O)C(=O)N2CCCc1ccccc1` [Compound 20], for which the IC50 was above 5000 nM in assay [1] (setting [3]) and 2500 nM in assay [2] (setting [4]).
For `CC(C)c1ccc2c(c1)C(=O)C(=O)N2CCCc1ccccc1` [Compound 21], in that order: above 5000 nM and 3200 nM.
Take `O=C1C(=O)N(CCCc2ccccc2)c2ccc(-c3ccccc3)cc21` [Compound 23]: the figures for the IC50 in assay [1] (setting [3]) and in assay [2] (setting [4]) were 4200 nM and 5900 nM, respectively.
The matching figures for `O=C1C(=O)N(CCCc2ccccc2)c2ccc(-c3ccsc3)cc21` [Compound 24]: 2500 nM and 2900 nM.
For `O=C1C(=O)N(CCCc2ccccc2)c2ccc(-c3ccco3)cc21` [Compound 25], in that order: 1500 nM and 2000 nM.
For `O=C1C(=O)N(CCCc2ccccc2)c2ccc(-c3cncnc3)cc21` [Compound 26], in that order: 530 nM and 700 nM.
With `O=C1C(=O)N(C/C=C/c2ccccc2)c2ccc(-c3cncnc3)cc21` [Compound 27], the IC50 in assay [1] (setting [3]) came to 360 nM; in assay [2] (setting [4]), 400 nM.
The matching figures for `O=C1C(=O)N(CCCc2ccccc2)c2ccc(-c3ccncc3)cc21` [Compound 28]: 1300 nM and 1600 nM.
The matching figures for `O=C1C(=O)N(C/C=C/c2ccccc2)c2ccc(-c3ccc(F)nc3)cc21` [Compound 29]: 330 nM and 300 nM.
The matching figures for `O=C1C(=O)N(C/C=C/c2ccccc2)c2ccc(-c3ccsc3)cc21` [Compound 30]: 870 nM and 1400 nM.
Take `O=C1C(=O)N(C/C=C/c2ccccc2)c2ccc(-c3cccnc3F)cc21` [Compound 31]: the IC50 in assay [1] (setting [3]) was determined as 260 nM; in assay [2] (setting [4]), 350 nM.
The matching figures for `O=C1C(=O)N(Cc2ccccc2)c2ccc(-c3ccccc3)cc21` [Compound 32]: 4100 nM and 1900 nM.
As for `O=C1/C(=N/O)c2cc(-c3cccnc3)ccc2N1Cc1ccccc1` [Compound 33], the IC50 in assay [1] (setting [3]) and in assay [2] (setting [4]) was above 5000 nM throughout.
`CO/N=C1/C(=O)N(Cc2ccccc2)c2ccc(-c3cccnc3)cc21` [Compound 34]: the IC50 in assay [1] (setting [3]) and in assay [2] (setting [4]) was above 5000 nM throughout.
`O=C1C(=O)N(C/C=C/c2ccccc2)c2ccc(-c3cccc([N+](=O)[O-])c3)cc21` [Compound 101]: the IC50 in assay [1] (setting [5]) came to 2100 nM; in assay [2] (setting [6]), 2200 nM.
For `O=C1C(=O)N(Cc2ccccn2)c2ccc(-c3cccnc3)cc21` [Compound 102], the IC50 was determined as 4100 nM in assay [1] (setting [7]) and 3700 nM in assay [2] (setting [8]).
Take `O=C1C(=O)N(Cc2ccccn2)c2ccc(-c3cccnc3)cc21` [Compound 103]: the results for the IC50 in assay [1] (setting [5]) and in assay [2] (setting [6]) were 4300 nM and 4400 nM, respectively.
Take `O=C1C(=O)N(CCCc2cccnc2)c2ccc(-c3cccnc3)cc21` [Compound 104]: the figures for the IC50 in assay [1] (setting [7]) and in assay [2] (setting [8]) were 910 nM and 2100 nM, respectively.
For `O=C1C(=O)N(CCCc2cccnc2)c2ccc(-c3cccnc3)cc21` [Compound 105], the IC50 in assay [1] (setting [7]) turned out to be 2500 nM; in assay [1] (setting [9]) it was 4600 nM; in assay [2] (setting [8]), 4800 nM; in assay [2] (setting [10]) it was 4700 nM.
Consider `O=C1C(=O)N(C/C=C/c2ccncc2)c2ccc(-c3cccnc3)cc21` [Compound 106], for which the figures for the IC50 in assay [1] (setting [5]) and in assay [2] (setting [6]) were 740 nM and 1400 nM, respectively.
Take `O=C1C(=O)N(C/C=C/c2ccncc2)c2ccc(-c3cccnc3)cc21` [Compound 107]: the half-maximal inhibitory concentration (IC50) in assay [1] (setting [7]) came out at 960 nM; in assay [1] (setting [9]), 740 nM; in assay [2] (setting [8]) it was 2000 nM; in assay [2] (setting [10]) it was 1600 nM.
Consider `O=C1C(=O)N(C/C=C/c2cccnc2)c2ccc(-c3cccnc3)cc21` [Compound 108], for which the IC50 worked out at 450 nM in assay [1] (setting [5]) and 500 nM in assay [2] (setting [6]).
For `O=C1C(=O)N(C/C=C/c2ccccn2)c2ccc(-c3cccnc3)cc21` [Compound 110], in that order: 470 nM and 580 nM.
On to `O=C1C(=O)N(C/C=C/c2ccccn2)c2ccc(-c3cccnc3)cc21` [Compound 111], for which the concentration for half-maximal inhibition (IC50) came to 480 nM in assay [1] (setting [7]), 500 nM in assay [1] (setting [9]), 580 nM in assay [2] (setting [8]) and 840 nM in assay [2] (setting [10]).
In the case of `CCN(CCN1C(=O)C(=O)c2cc(-c3cccnc3)ccc21)c1ccccc1` [Compound 112], the concentration for half-maximal inhibition (IC50) in assay [1] (setting [5]) and in assay [2] (setting [6]) was above 5000 nM throughout.
In the case of `CCN(CCN1C(=O)C(=O)c2cc(-c3cccnc3)ccc21)c1ccccc1` [Compound 113], the IC50 in assay [1] (setting [9]) and in assay [2] (setting [10]) was above 5000 nM in each case.
As for `O=C1C(=O)N(C/C=C/c2ccc3ccccc3n2)c2ccc(-c3cccnc3)cc21` [Compound 114], the IC50 in assay [1] (setting [5]) came to 1000 nM; in assay [2] (setting [6]), 650 nM.
`O=C1C(=O)N(C/C=C/c2ccc3ccccc3n2)c2ccc(-c3cccnc3)cc21` [Compound 115]: the half-inhibitory concentration (IC50) in assay [1] (setting [7]) was determined as 1400 nM; in assay [1] (setting [9]) it was 1900 nM; in assay [2] (setting [8]) it was 680 nM; in assay [2] (setting [10]) it was 1900 nM.
Turning to `O=C1C(=O)N(C/C=C/c2cccnc2Cl)c2ccc(-c3cccnc3)cc21` [Compound 116], the IC50 came to 660 nM in assay [1] (setting [5]) and 390 nM in assay [2] (setting [6]).
The matching figures for `O=C1C(=O)N(Cc2ccccc2I)c2ccc(-c3cccnc3)cc21` [Compound 117]: 3400 nM and 1900 nM.
The matching figures for `O=C1C(=O)N(Cc2ccccc2-c2cccnc2)c2ccc(-c3cccnc3)cc21` [Compound 118]: above 5000 nM and 3300 nM.
As to `O=C1C(=O)N(Cc2cccc(-c3cccnc3)c2)c2ccc(-c3cccnc3)cc21` [Compound 119], the IC50 in assay [1] (setting [5]) was found to be 2300 nM; in assay [2] (setting [6]), 1400 nM.
Regarding `O=C1C(=O)N(Cc2cccc(-c3cccnc3)c2)c2ccc(-c3cccnc3)cc21` [Compound 120], the IC50 in assay [1] (setting [7]) was found to be 2300 nM; in assay [1] (setting [9]) it was 4100 nM; in assay [2] (setting [8]), 1200 nM; in assay [2] (setting [10]), 1900 nM.
Turning to `O=C1C(=O)N(Cc2ccc(I)cc2)c2ccc(-c3cccnc3)cc21` [Compound 121], the IC50 is 500 nM in assay [1] (setting [5]) and 350 nM in assay [2] (setting [6]).
The matching figures for `O=C1C(=O)N(Cc2ccc(-c3cccnc3)cc2)c2ccc(-c3cccnc3)cc21` [Compound 122]: 580 nM and 380 nM.
`O=C1C(=O)N(Cc2ccc(-c3cccnc3)cc2)c2ccc(-c3cccnc3)cc21` [Compound 123]: the half-inhibitory concentration (IC50) in assay [1] (setting [7]) amounted to 600 nM; in assay [1] (setting [9]), 2300 nM; in assay [2] (setting [8]), 380 nM; in assay [2] (setting [10]) it was 800 nM.
